Patent US20240122934A1, “COMPOSITIONS AND METHODS OF TREATMENT FOR INHIBITING CAPILLARY TUBE REGRESSION” (University of South Florida, priority 2019, published 2024)
“Also recorded” adds a separate entry of the source.

Columns and labels:
THP-1 macrophages = experiment: TLR ligand activation of cells; conditioned medium tested on EC tube networks; type: cell-based, human
Method: (§1) (A,B) The TLR ligand Pam3CSK4 was added at 100 ng/ml to THP-1 macrophages that were differentiated in two separate ways (THP-1-VT vs. THP-1-T) or to ECs, fibroblasts (Fib), or pericytes (Peri). Conditioned medium was collected after 4 hr and was added at a 1:5 dilution to established EC tube networks vs. control Pam3CSK4 or control RPMI1640 media. Two independent conditioned media batches were obtained for both the THP-1-VT (i.e. VT1, VT2) and THP-1-T (i.e. T1, T2) macrophage cells. IL-la and IL-1β were added separately at 1 ng/ml. After 24 hr, cultures were fixed, stained, photographed (A) and quantitated for EC tube area (B). Bar equals 200 μm. […] The values (±SD) were obtained from analyzed fields (n=15) where total lumen and tube area was measured. Asterisks indicate significance at p<0.05 compared to control. (C) LPS was added at the indicated concentrations (ng/ml) in the presence or absence of recombinant LPS binding protein (LBP) at 1 μg/ml to EC tube networks. EC lumen areas were measured after 24 hr following these additions. (D) THP-T macrophages were treated with control or 100 ng/ml of Pam3CSK4 (Pam) or LPS. After 4 hr, total RNA was obtained, and RT-PCR analysis was performed evaluating the mRNA expression of indicated genes. […] From the real-time videos, EC lumen areas were measured over time (n=6). […]

THP-T macrophages = experiment: RT-PCR of cytokine mRNA in TLR ligand-treated macrophages; type: cell-based, human; details: 100 ng/ml, 4 hr
Method: as §1

EC tube networks [1] = experiment: 3D collagen EC tube regression assay; type: cell-based, human; details: for EC tube regression (pro-regressive activity): factor added to established 48 hr EC tube networks, 24 hr
Method: (A) EC cultures with tube networks were established for 48 hr followed by the addition of indicated cytokines or thrombin (Thr) for 24 hr. IL-1β and IL-la were added at 1 ng/ml, TNFα at 3.16 ng/ml and thrombin at 1 μg/ml. Bars equal 100 or 200 μm. (B,C,D) EC tube networks were treated with the indicated cytokines and varying concentrations in dose-response analyses and in the presence or absence of thrombin added at 1 μg/ml. After 24 hr, cultures were fixed, stained and quantitated for EC lumen area per field. These curves are from a representative experiment using triplicate wells for each condition. The values (±SD) are derived from analyzed fields (n=15) where total lumen and tube area was measured. Asterisks indicate significance at p<0.05 compared to control and squares indicate significance at p<0.05 compared to the cytokine treatments alone.
ECs (passages 3-6) and pericytes (passages 3-12) were cultured as previously described^49,50. THP-1 cells were cultured in RPMI-1640-20% FCS. THP-1-T macrophages were differentiated for 72 hr. with 50 ng/ml of phorbol ester in RPMI-20% FCS, and then treated for 48 hr. in RPMI-2% FCS prior to adding TLR ligands. THP-1-VT macrophages were induced to differentiate for 72 hr. with 10^-7 M vitamin D3 (Calcitriol) in RPMI-20% FCS, followed by 48 hr. with phorbol ester in RPMI-2% FCS prior to adding TLR ligands.
(§2) ECs or ECs with pericytes were suspended in 3D collagen matrices and incubated at 37° C. in serum-free defined media as described^9,50,51. Recombinant factors or THP-1 conditioned media were added at the indicated doses to existing 48 or 72 hr. cultures with EC only or EC-pericyte tube networks, respectively. After 24 or 48 hr. for EC only or EC-pericyte tubes, respectively, cultures were fixed in 3% glutaraldehyde or 3% paraformaldehyde. EC tube areas were traced and quantitated as described. In some cases, neutralizing antibodies were added (10 μg/ml). For signaling experiments, lysates were prepared from control vs. regressing 3D cultures at different time points.

EC tube networks [2] = experiment: Western blots of lysates from regressing 3D EC cultures (regression signaling signature); type: cell-based, human; details: 24-hr. time course, compared to control EC tubes
Method: (A,B) ECs tube networks were treated with the indicated factors vs. control and at different time points, lysates were prepared from the 3D cultures. Western blots were performed using the different indicated antibodies. (C) Schematic illustrating findings that define a capillary regression signaling signature.
THP-T macrophages were treated with Pam3CSK4 (Pam) or LPS and conditioned medium was added at a 1:20 or 1:50 dilution, respectively, to EC tube networks. Control and IL10-treated cultures were compared with the conditioned medium treatments within the same experiment. At the indicated time points, lysates were obtained, and Western blots were performed with the indicated antibodies.
as §2

EC sprouts and tubes = experiment: angiogenic sprouting assay (ECs invading from monolayer surface); type: cell-based, human; details: angiogenic sprouting system
Method: (A) ECs were seeded onto a monolayer surface and then allowed to invade into the gels to form tubes over a 48 hr period. At this time, cultures were then treated with IL-1β or TNFα and in the absence or presence of FIST. Cultures were fixed after 24 hr, stained and photographed to visualize the monolayer surface and the underlying sprouts and tubes. (B) Cultures were established just like in A and then the Pak2 inhibitor, Frax486 (2.5 μM) or the microtubule depolymerizing agent, vinblastine (100 nM), were added to media in the presence or absence of FIST. Cultures were fixed after 24 hr, stained and photographed. Bar equals 200 μm.
Studies to define the factors and signals that promote endothelial cell (EC) lumen and tube formation, EC sprouting and EC-pericyte tube co-assembly have been performed under serum-free defined conditions so that the functional role of individual molecules that regulate these processes can be assessed. Disclosed herein, the factors that control capillary regression are defined. Capillary regression is a process that has been largely neglected despite the likelihood that it may present a fundamental pathogenic feature of major human diseases where capillary disassembly and regression are known to occur (i.e. hypertension, diabetes, ischemic disease in many tissues, neurodegenerative diseases, and malignant cancer). […] EC tube networks were allowed to form for 48 hr. (vasculogenesis type of assay) and then added these agents in dose-response experiments, showing that they potently induce EC tube regression (at low ng levels) (FIG. 1). Real-time movies were performed to visualize these pro-regressive activities. This experimental approach has utilized assays that mimic vasculogenesis or angiogenic sprouting and these factors induce regression equally well in both assay systems. […] These studies have been performed primarily in 3D collagen matrices, but the same result is also observed in 3D fibrin matrices.

[3] = system: Lymphatic EC tube networks; experiment: lymphatic EC tube network regression; type: cell-based; details: cytokines 10 ng/ml, thrombin 1 μg/ml, 24 hr
Method: Lymphatic EC tube networks were established for 48 hr and at that time, the indicated pro-inflammatory mediators were added. IL-10 and TNFα were added at 10 ng/ml, while thrombin was added at 1 μg/ml. (A) After 24 hr, cultures were fixed, stained with toluidine blue and photographed. (B) The cultures in (A) were quantitated for EC tube area. Asterisks indicate significance at p<0.01 compared to control.

[4] = system: EC-pericyte tube networks; experiment: EC-pericyte co-culture regression assay; type: cell-based, human; details: added to 72 hr co-cultures
Method: (A) EC-pericyte (GFP-labeled) co-cultures were established and allowed to form for 72 hr and at this time, the combination of IL-1β (10 ng/ml), TNFα (10 ng/ml) and thrombin (11 μg/ml) were added in combination compared to control and real-time movies were performed. Light and fluorescent image overlays over time are shown in representative fields. Arrowheads indicate clusters of pericytes that accumulate together during regression responses in response to these three factors in combination. After 48 hr, fixed cultures were stained for CD31 to detect ECs and fluorescence image overlays were performed. (B) The same set up was established as in A, except that each individual factor and combination of factors were added. After 48 hr, the cultures were fixed and stained for CD31. Confocal images were obtained, and fluorescence overlay images are shown.
(A) EC-pericyte co-cultures were established for 72 hr, and then were left untreated or with IL-1β (10 ng/ml), TNFα (10 ng/ml), and thrombin (11 μg/ml) in combination. After 48 hr, cultures were fixed and stained with CD31, confocal microscopy and 3D reconstruction of the images allowed for an upright and side view. (B) EC-pericyte tube networks were treated with the indicated single and combined factors and after fixation, EC tube area was quantitated. […] The values (±SD) were obtained from analyzed fields (n=15) where total lumen and tube area was measured. Asterisks indicate increased significance at p<0.05 compared to control, the squares indicate decreased significance at p<0.05 relative to the single factor conditions and the triangle indicates significance at p<0.05 relative to the double factor conditions. (C) EC-pericyte tube networks were treated with indicated combinations of factors. After 48 hr, total GFP fluorescence per well was quantitated as a measure of pericyte number since they are GFP-labeled. […] Asterisks indicate significance at p<0.05 compared to control.
as §2

hyaloid vessels = experiment: hyaloid vascular regression in mice; type: in vivo; details: intravitreal injection, vessel number quantitated at P8
Method: (A) Intravitreal injection of blocking antibodies directed to both IL-10 and TNFα vs control IgG was performed at postnatal day (P) 6, and hyaloid vessel number was quantitated at P8. (B) Intravitreal injection of IL-10 was performed at P5 vs vehicle control, and hyaloid vessel number was quantitated at P8. (C and D) Hyaloid vessels at P2 and P8 were immunostained for phospho-MLC2 (p-MLC; red) and CD31-positive endothelial cells (ECs; green), and double-positive cells were imaged and quantitated over time. Scale bar=100 μm. E and F, Analysis of ICAM-1 expression at the mRNA (E) and protein level (F) during different stages of hyaloid vessel regression. CD indicates cluster of differentiation; DAPI, 4′6-diamidino-2-phenylindole; ICAM, intercellular adhesion molecule; and MLC, myosin light chain.
In some embodiments, physiologic capillary regression can be modeled in a mouse by examining the postnatal regression of the eye hyaloid vasculature. In some embodiments, this vascular regressive response can depend on the presence of adjacent macrophages which decorate this developmental vascular bed. […] In some embodiments, EC capillary regression during hyaloid regression can include increased expression of ICAM-1 (at the mRNA and protein level) and increased presence of phospho-MLC2 in regressing hyaloid ECs.

Pam3CSK4
induction of pro-regressive activities in conditioned media of other cell types (THP-1 macrophages; ECs, pericytes and fibroblasts): failed to induce pro-regressive activities in their conditioned media
induction of pro-regressive activities in macrophage conditioned medium (THP-1 macrophages; TLR ligand 100 ng/ml added to macrophages, medium collected after 4 hr): highly potent pro-regressive activities in the macrophage conditioned medium
mRNA expression of inflammatory cytokines (THP-T macrophages): marked upregulation of TNFα, IL-1β, IL-la, IL-6 and IL-10 (i.e. an anti-inflammatory cytokine) as well as tissue factor (i.e. F3)
EC tube regression (pro-regressive activity) (EC tube networks [1]): Neither Pam3CSK4 or LPS by themselves (with and without the presence of LPS-binding protein, LBP) had any ability to directly cause EC tube regression

TNFα
ICAM-1 and VCAM-1 levels (EC tube networks [2]): Strong upregulation of ICAM-1 and VCAM-1
phospho-Pak2, phospho-cofilin, acetylated tubulin, procaspase3 levels (EC tube networks [2]): decreased levels of phospho-Pak2, phospho-cofilin, acetylated tubulin and procaspase3
phospho-p38, phospho-JNK, phospho-MLC2 levels (EC tube networks [2]): increased levels of phospho-p38, phospho-JNK, and phospho-MLC2
degeneration of sprouts and EC monolayer (EC sprouts and tubes): induce degeneration of the invading sprouts, but also the EC monolayer surface where the sprouts originated
lymphatic tube network regression [3]: regress
EC tube regression in EC-pericyte co-cultures [4]: marked tube regression in response to each factor individually and, also in combination
pericyte numbers [4]: an increase in pericyte numbers
EC tube regression in screen of growth factors and cytokines (EC tube networks [1]; 40 and 10 ng/ml, 48 hr EC tube networks): more potent pro-regressive factors than the other factors described herein
EC tube regression (pro-regressive activity) (EC tube networks [1]): directly cause capillary tube collapse and regression

thrombin
lymphatic tube network regression [3]: regress
EC tube regression in EC-pericyte co-cultures [4]: marked tube regression in response to each factor individually and, also in combination
pericyte numbers [4]: an increase in pericyte numbers
EC tube regression (pro-regressive activity) (EC tube networks [1]): directly cause capillary tube collapse and regression; also recorded: less effective

B1: IL-10: anti-inflammatory cytokine (protein, UniProt P22301 19-178, looked up)
Interleukin-10: SPGQGTQSENSCTHFPGNLPNMLRDLRDAFSRVKTFFQMKDQLDNLLLKESLLEDFKGYLGCQALSEMIQFYLEEVMPQAENQDPDIKAHVNSLGENLKTLRLRLRRCHRFLPCENKSKAVEQVKNAFNKLQEKGIYKAMSEFDIFINYIEAYMTMKIRN
hyaloid vessel regression (hyaloid vessels): inhibited hyaloid regression
